Experimental data: patent US20220127297A1, “Novel Antibacterial 3"-Derivatives Of 4,6-Disubstituted 2,5-Dideoxystreptamine Aminoglycoside Antibiotics” (AGILeBiotics B.V., priority 2018, published 2022)
In brackets after ≈: the same amount, converted by molar mass.

Test system: clinical isolates of multidrug-resistant Klebsiella pneumoniae (and ATCC43816)
Test: MIC determination at Fidelta, clinical isolates
Format: cell-based
Settings: Klebsiella pneumoniae
From the text: 3.4.2 MIC Determination at Fidelta (Croatia)
Tested reference compounds. Amikacin sulfate (Cat. No. 01693, Chem-Impex), Gentamicin sulfate (Cat. No. G4918, Sigma Aldrich), Ceftazidime Pentahydrate (Cat. No. 1098130, USP), Meropenem (Cat. No. 1392454, USP), Tobramycin (Cat. No. 1667508, USP).
Microbial strains. Klebsiella pneumoniae KP-1919 (abdomen), Klebsiella pneumoniae KP-1935 (urine), Klebsiella pneumoniae KP-1936 (abscess), Klebsiella pneumoniae KP-1937 (blood), Klebsiella pneumoniae KP-1942 (urine), Klebsiella pneumoniae KP-1944 (blood), Klebsiella pneumoniae KP-2027 (tracheal aspirate), Klebsiella pneumoniae KP-2029 (urine), Klebsiella pneumoniae KP-2030 (trachea), Klebsiella pneumoniae KP-2031 (skin), Klebsiella pneumoniae KP-2032 (urine), Klebsiella pneumoniae KP-2033 (urine), Klebsiella pneumoniae KP-2034 (urine), Klebsiella pneumoniae KP-2035 (urine), Klebsiella pneumoniae KP-2036 (urine), Klebsiella pneumoniae KP-2037 (urine), Klebsiella pneumoniae ATCC 43816, Pseudomonas aeruginosa PA-1948 (wound), Pseudomonas aeruginosa PA-1949 (urine), Pseudomonas aeruginosa PA-1950 (sputum), Pseudomonas aeruginosa PA-1952 (wound), Pseudomonas aeruginosa PA-1953 (urine), Pseudomonas aeruginosa PA-1954 (sputum), Pseudomonas aeruginosa PA-1967 (blood), Pseudomonas aeruginosa ATCC27853, Acinetobacter baumannii AB-1931 (urine), Acinetobacter baumannii AB-1932 (urine), Acinetobacter baumannii AB-2017 (bronchial aspirate), Acinetobacter baumannii AB-2018 (skin), Acinetobacter baumannii AB-2019 (bronchial aspirate), Acinetobacter baumannii AB-1964 (blood), Acinetobacter baumannii AB-2025 (skin), Acinetobacter baumannii AB-2026 (skin), Acinetobacter baumannii ATCC17978, methicillin-resistant Staphylococcus aureus MRSA-1995 (liquor), methicillin-resistant Staphylococcus aureus MRSA-1998 (wound), methicillin-resistant Staphylococcus aureus MRSA-1999 (skin), methicillin-resistant Staphylococcus aureus MRSA-2003 (wound), vancomycin-resistant Enterococcus faecium VRE-2005 (urine), vancomycin-resistant Enterococcus faecium VRE-2006 (urine), vancomycin-resistant Enterococcus faecium VRE-2007 (urine), vancomycin-resistant Enterococcus faecium VRE-2008 (urine), vancomycin-resistant Enterococcus faecium VRE-2009 (urine), vancomycin-resistant Enterococcus faecium VRE-2010 (urine), vancomycin-resistant Enterococcus faecium VRE-2011 (rectum), vancomycin-resistant Enterococcus faecium VRE-2012 (rectum), vancomycin-resistant Enterococcus faecium VRE-2013 (rectum).
Culture media and equipment. BBL™ Mueller Hinton Broth (REF 275730, Lot. 7009699, Becton Dickinson); Mueller Hinton Agar 2 (Ref. No. 97580-500G-F, Lot. No. BCBV4646, Sigma); Cellstar, 96-well plates, U-bottom (Cat. No. 650180, Lot. No. E14123EB, Greiner Bio-one); 96-well deep well plate, 1 mL (Cat. No. 278606, Nunc); Incubator (Binder); Laminar flow (Thermo Scientific); BioPhotometer (Eppendorf); DEN-1B (McFarland Densitometer, Biosan); McFarland standards (polymer microparticle suspension, Biosan).
Compound preparation. For testing, 5 mg/mL DMSO solutions of the test compounds and reference antibiotics were used. Out of these DMSO solutions, 43.5 μL was transferred to 1656.5 μL of MH media in a deep well plate. Out of these working solutions 100 μL was transferred to wells in the third column of 96-well plates. Plates are previously filled with 50 μL of MH media in all wells except for the wells in the third column. After compound and antibiotic addition, 50 μL was transferred from the third to the fourth column, then from the fourth to the fifth and so on. In this manner, the compounds and antibiotics were plated in 96-well plate in serial two-fold dilutions giving a final concentration range of 64-0.125 μg/mL.
Inoculum preparation. Designations used for clinical isolates were from Fidelta strain collection bank. Microorganisms used were all revived from skim milk storage at −70° C. by plating them on MH agar plates.

Compound: NC[C@H]1O[C@H](O[C@H]2[C@H](O)[C@@H](O[C@H]3O[C@H](CO)[C@@H](O)[C@H](N)[C@H]3O)[C@H](N)C[C@@H]2N)[C@H](N)C[C@@H]1O [Tobramycin, tobramycin]
- MIC90 (ATCC43816): 0.125 µg/mL (≈ 0.267 µM)
- MIC90 (ATCC43816, KP-1919, Abdomen/VIM, ESBL): 32 µg/mL (≈ 68.4 µM)
- MIC90 (ATCC43816, KP-1935, Urine/ESBL, NDM): 32 µg/mL (≈ 68.4 µM)
- MIC90 (ATCC43816, KP-1936, Abscess/NDM): 16 µg/mL (≈ 34.2 µM)
- MIC90 (ATCC43816, KP-1937, Blood/VIM, ESBL): > 64 µg/mL
- MIC90 (ATCC43816, KP-1942, Urine (catheter)/VIM): 16 µg/mL (≈ 34.2 µM)
- MIC90 (ATCC43816, KP-1944, Blood/NDM): 32 µg/mL (≈ 68.4 µM)
- MIC90 (ATCC43816, KP-2027, Tracheal aspirate/ESBL, OXA-48, ColR): 16 µg/mL (≈ 34.2 µM)
- MIC90 (ATCC43816, KP-2029, Urine/ESBL, OXA-48): 32 µg/mL (≈ 68.4 µM)
- MIC90 (ATCC43816, KP-2030, Trachea/ESBL, OXA-48): 64 µg/mL (≈ 137 µM)
- MIC90 (ATCC43816, KP-2031, Skin/ESBL, OXA-48): 32 µg/mL (≈ 68.4 µM)
- MIC90 (ATCC43816, KP-2032, Urine/ESBL, OXA-48): 16 µg/mL (≈ 34.2 µM)
- MIC90 (ATCC43816, KP-2033, Urine/OXA-A8): > 64 µg/mL
- MIC90 (ATCC43816, KP-2034, Urine/ESBL, OXA-48): 32 µg/mL (≈ 68.4 µM)
- MIC90 (ATCC43816, KP-2035, Urine/ESBL, OXA-48): 64 µg/mL (≈ 137 µM)
- MIC90 (ATCC43816, KP-2036, Urine/ESBL): 16 µg/mL (≈ 34.2 µM)
- MIC90 (ATCC43816, KP-2037, Urine/ESBL, OXA-48): 16 µg/mL (≈ 34.2 µM)
